Measured values from patent US20120195860A1, “LATENT NEURAL STEM CELL POPULATION” (priority 2007, published 2012).
Structures can show the parent of a compound that is named as a salt.

Experiments:
[1] = tested on: cortical cells; test: primary neurosphere culture, cortex; format: cell-based, mouse; settings: depolarization (potassium)
Description: Adult (6-8 week old) male C57/B16 mice were killed by cervical dislocation, their brains immediately removed and the hippocampus, SVZ, olfactory bulb or cortex dissected. The tissue was enzymatically digested with 0.1% trypsin-EDTA (Gibco/Invitrogen, Eugene, Oreg.) for 7 minutes at 37° C., followed by a wash with 0.014% w/v trypsin inhibitor (type I-S from soybean; Sigma-Aldrich. Australia, Sydney, Australia) dissolved in Hepes-buffered minimum essential medium (HEM), which consisted of minimum essential medium (Gibco/Invitrogen) supplemented with 16 mM HEPES (Sigma-Aldrich Australia) and 100 units/ml penicillin/streptomycin (Gibco/Invitrogene). The tissue was centrifuged at 100 rcf for 7 minutes, following which the pellet was resuspended in 1 ml neurosphere growth medium, mechanically triturated until smooth, then filtered through a 40 μm cell sieve (Falcon/BD Biosciences Australia, North Ryde, Australia). […]
The neurosphere growth medium already contained 4.18 mM KCl. […] The primary neurospheres were then counted and collected for passaging or differentiation. Results of the neurosphere counts were expressed as mean ± standard error and statistical analysis was performed using a standard t-Test (two sample assuming equal variance).

[2] = tested on: adult mouse hippocampal cells; test: primary neurosphere culture, hippocampus; format: cell-based
Description: Adult (6-8 week old) male C57/B16 mice were killed by cervical dislocation, their brains immediately removed and the hippocampus, SVZ, olfactory bulb or cortex dissected. The tissue was enzymatically digested with 0.1% trypsin-EDTA (Gibco/Invitrogen, Eugene, Oreg.) for 7 minutes at 37° C., followed by a wash with 0.014% w/v trypsin inhibitor (type I-S from soybean; Sigma-Aldrich. Australia, Sydney, Australia) dissolved in Hepes-buffered minimum essential medium (HEM), which consisted of minimum essential medium (Gibco/Invitrogen) supplemented with 16 mM HEPES (Sigma-Aldrich Australia) and 100 units/ml penicillin/streptomycin (Gibco/Invitrogene). The tissue was centrifuged at 100 rcf for 7 minutes, following which the pellet was resuspended in 1 ml neurosphere growth medium, mechanically triturated until smooth, then filtered through a 40 μm cell sieve (Falcon/BD Biosciences Australia, North Ryde, Australia). The neurosphere growth medium consisted of mouse NeuroCult™ NSC Basal Medium plus mouse NeuroCult™ NSC Proliferation Supplements (StemCell Technologies, Vancouver, Canada) with 2% bovine serum albumin (Roche, Basel, Switzerland) and 2 μg/ml heparin (Sigma-Aldrich Australia). […]

[3] = tested on: DCX+ve / DCX-ve and PNA positive adult hippocampal cells; test: neurosphere assay on sorted hippocampal cells (DCX-GFP FACS, PNA binding); format: cell-based, mouse
Description: E14, P2 and adult brains were collected as described above and processed either whole or dissected into specific regions (olfactory bulb, cortex, cerebellum and subventricular zone (SVZ)). GFP+ve cells were separated by fluorescence-activated cell sorting (FACS) using a FACS Vantage cell sorter (BD Biosciences). A wild-type littermate control was used to determine background fluorescence levels. For primary neurosphere cultures the cells were plated at a density of 500 cells/well in 96-well plates (Falcon/BD Biosciences, San Jose, Calif.) with 0.2 ml complete medium per well. […] The primary neurospheres were then counted and collected for passaging or differentiation. Results of the neurosphere counts were expressed as mean + or − standard error and statistical analysis was performed using a standard t-Test (two sample assuming equal variance).
Mice in which the green fluorescent protein (GFP) is driven by the Doublecortin (DCX) promoter (DCX-GFP) were used for the separation of DCX^+ve cells. […] DCX-GFP^+ve and DCX-GFP^−ve cells were separated by fluorescence-activated cell sorting (FACS) using a FACS Vantage cell sorter (BD Biosciences) as described (see above). A wild-type littermate control was used to determine background fluorescence levels. Potassium was added to DCX^+ve and DCX^−ve cells at a final concentration of 15 mM and the number of neurospheres counted after 10 days.

[4] = tested on: 33 week HD hippocampal precursors; test: hippocampal neurosphere assay, Huntington's disease R6/1 mice; format: cell-based, mouse; settings: 33 week old HD mice
Description: R6/1 (B6CBA-TgN(HDexon1)61 Gpb/Pan) mice were originally obtained from Jackson Laboratory (Bar Harbor, Me.) and maintained by backcrossing to CBB6F1 females. For the neurosphere assays we used HD exon 1 carriers (R6/1) and aged matched wild-type littermates. Huntington's Disease is a neurodegenerative disorder that affects the striatum and cortex as well as hippocampus (Murphy et al., 2000). Previous studies have shown that older symptomatic R6/1 transgenic mice have a significant decrease in cell proliferation in the hippocampus compared to wild-type mice whereas younger pre-symptomatic R6/1 and WT mice had similar levels of proliferation (Lazic et al., 2004). […] We observed a decrease in the total number of hippocampal neuroapheres with age in WT mice that was not observed in HD mice.

[5] = tested on: hippocampal precursors of mice that underwent SE; test: hippocampal neurosphere assay after status epilepticus in vivo; set-up: species or system mouse
Description: Seizures were induced in 6-8 week old C57BL/6 male mice by the administration of pilocarpine, a muscarinic cholinergic agonist. Thirty minutes prior to pilocarpine administration, the mice were injected with 2.5 mg/kg of the cholinergic antagonist scopolamine methyl nitrate (Sigma-Aldrich) to reduce peripheral cholinergic effects. They then received intraperitoneal injections of 350 mg/kg pilocarpine hydrochloride (Sigma-Aldrich). […] Seizures were stopped 2 hours after status epilepticus onset, with an intraperitoneal injection of 5 mg/kg diazepam (Patulin, Parnell Laboratories Sydney, Australia).
In addition we observed that extended depolarization, between 24 and 48 hours exposure to high level of KCl is required for the stimulation to occur in WT hippocampus confirming the need for prolonged depolarization.

[6] = tested on: cells derived from the spinal cord; test: activation of cells derived from the spinal cord; format: cell-based; settings: KCl

| Structure (SMILES) | increase in neurosphere number in cortex [1] | increase in number of neurospheres, stimulated compared to control ([2]; 18 month old hippocampus, depolarizing conditions) | formation of large neurospheres ([2]; potassium-induced depolarization, hippocampus) | response of DCX-ve vs DCX+ve population to high levels of potassium ([3]; 15 mM potassium, 10 days) | activation of PNA positive population ([3]; adult hippocampal cells separated by peanut agglutinin binding) | further increase of HD hippocampal precursors by potassium depolarization in vitro [4] | further stimulation of precursors from SE mice by depolarizing potassium ([5]; SE at least 2 hours, sacrificed after 48 hours, potassium added in vitro) | activation of spinal cord derived cells [6] | activation of latent hippocampal population by induced seizures ([5]; injections of pilocarpine hydrochloride, FIG. 8A) |
| --- | --- | --- | --- | --- | --- | --- | --- | --- | --- |
| [Cl-].[K+] [KCl, potassium chloride] | over 3 fold | over 12 fold | stimulates the formation of increased numbers of large neurospheres | it is this population, and not the DCX^+ve population, that responds | activated | could not be further increased | no further stimulatory effect | activation | – |
| CC[C@@H]1C(=O)OC[C@@H]1Cc1cncn1C [pilocarpine hydrochloride] | – | – | – | – | – | – | – | – | activation |
